According to patent US6737383B1, “Herbicidal oxadiazolidines” (priority 1999, dated 2004):

Tests used:
[1] = system: bedstraw; test: Test B pre/postemergence bedstraw; format: in vivo, Galium aparine
Outline: (§1)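 Test chemicals in a non-phytotoxic solvent mixture with surfactant were sprayed preemergence onto planted seeds and postemergence onto plants 2 to 18 cm tall (1- to 4-leaf stage). After twelve to sixteen days in a greenhouse, injury was visually rated against untreated controls from 0 (no effect) to 10 (complete control).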

[2] = system: blackgrass; test: Test B pre/postemergence blackgrass; format: in vivo, Alopecurus myosuroides
Outline: as §1

[3] = system: surinam grass; test: Test B pre/postemergence surinam grass; format: in vivo, Brachiaria decumbens
Outline: as §1

[4] = system: corn; test: Test B pre/postemergence corn; format: in vivo, Zea mays; details: for Corn plant response rating: Postemergence; for Plant response rating, Corn: Preemergence
Outline: as §1

[5] = system: crabgrass; test: Test B pre/postemergence crabgrass; format: in vivo, Digitaria sanguinalis
Outline: as §1

[6] = system: giant foxtail; test: Test B pre/postemergence giant foxtail; format: in vivo, Setaria faberii
Outline: as §1

[7] = system: morningglory; test: Test B pre/postemergence morningglory; format: in vivo, Ipomoea hederacea; details: for Morningglory plant response rating: Postemergence; for Plant response rating, Morningglory: Preemergence
Outline: as §1

[8] = system: pigweed; test: Test B pre/postemergence pigweed; format: in vivo, Amaranthus retroflexus
Outline: as §1

[9] = system: soybean; test: Test B pre/postemergence soybean; format: in vivo, Glycine max
Outline: as §1

[10] = system: velvetleaf; test: Test B pre/postemergence velvetleaf; format: in vivo, Abutilon theophrasti
Outline: as §1

[11] = system: wheat; test: Test B pre/postemergence wheat; format: in vivo, Triticum aestivum
Outline: as §1

[12] = system: wild oat; test: Test B pre/postemergence wild oat; format: in vivo, Avena fatua
Outline: as §1

[13] = system: purple nutsedge; test: Test B pre/postemergence purple nutsedge; format: in vivo, Cyperus rotundus
Outline: as §1

[14] = system: rice; test: Test B flood test rice; format: in vivo, Oryza sativa
Outline: (§2)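 Plants were grown to the 2-leaf stage before treatment with test chemical, then held in a greenhouse for twelve to sixteen days. Injury was visually rated against untreated controls on a 0–10 scale, where 0 is no effect and 10 is complete control.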

[15] = system: smallflower flatsedge; test: Test B flood test smallflower flatsedge; format: in vivo, Cyperus difformis
Outline: as §2

[16] = system: duck salad; test: Test B flood test duck salad; format: in vivo, Heteranthera limosa
Outline: as §2

[17] = Postemergence, Rate 62 g/ha, scale 0 to 10, 0 is no effect, 10 is complete control
[18] = Postemergence, Rate 250 g/ha, scale 0 to 10, 0 no effect, 10 complete control
[19] = Preemergence, Rate 62 g/ha, scale 0 to 10, 0 is no effect, 10 is complete control
[20] = Preemergence, Rate 125 g/ha, scale 0 to 10 (0 no effect, 10 complete control)
[21] = Preemergence, Rate 250 g/ha, scale of 0 to 10 where 0 is no effect and 10 is complete control
[22] = Preemergence, Rate 500 g/ha, scale 0 (no effect) to 10 (complete control)
[23] = Rate 125 g/ha, Postemergence, scale 0 to 10, 0 no effect, 10 complete control
[24] = Rate 500 g/ha, Postemergence, scale 0 to 10, 0 no effect, 10 complete control
[25] = Rate 62 g/ha, scale 0 to 10, 0 is no effect, 10 is complete control
[26] = Rate 250 g/ha, scale 0 to 10, 0 no effect, 10 complete control
[27] = Rate 125 g/ha, scale 0 to 10 (0 no effect, 10 complete control)
[28] = Rate 250 g/ha, scale of 0 to 10 where 0 is no effect and 10 is complete control
[29] = Rate 125 g/ha, scale 0 to 10, 0 no effect, 10 complete control
[30] = Rate 500 g/ha, scale 0 to 10, 0 no effect, 10 complete control
[31] = Rate 125 g/ha, Postemergence section (flood test species), scale 0 to 10, 0 no effect, 10 complete control
[32] = Rate 500 g/ha, listed under Postemergence (flood test species), scale 0 to 10, 0 no effect, 10 complete control
[33] = flood test, listed under Postemergence, Rate 250 g/ha, scale 0 to 10, 0 no effect, 10 complete control

Cc1cccc(Cl)c1-n1c(=O)on(C(=O)N(c2ccc(Cl)cc2)C(C)C)c1=O [Compound 54]
Bedstraw plant response rating [1, 17]: 0 | Bedstraw plant response rating [1, 18]: 4 | Plant response rating, Bedstraw [1, 19]: 0 | Plant response rating, Bedstraw [1, 20]: 0 | Plant response rating, Bedstraw [1, 21]: 0 | Bedstraw plant response rating [1, 22]: — — 0 0 0 | Bedstraw plant response rating [1, 23]: 0 | Bedstraw plant response rating [1, 24]: 7 | Blackgrass plant response rating [2, 17]: 0 | Blackgrass plant response rating [2, 18]: 0 | Plant response rating, Blackgrass [2, 19]: 0 | Plant response rating, Blackgrass [2, 20]: 0 | Plant response rating, Blackgrass [2, 21]: 0 | Blackgrass plant response rating [2, 22]: 2 | Blackgrass plant response rating [2, 23]: 0 | Blackgrass plant response rating [2, 24]: 2 | B. signalgrass plant response rating [3, 17]: 0 | B. signalgrass plant response rating [3, 18]: 0 | Plant response rating, B. signalgrass [3, 19]: 0 | Plant response rating, B. signalgrass [3, 20]: 0 | Plant response rating, B. signalgrass [3, 21]: 0 | B. signalgrass plant response rating [3, 22]: 2 | B. signalgrass plant response rating [3, 23]: 0 | B. signalgrass plant response rating ([3]; Rate 500 g/ha, Postemergence, scale of 0 to 10 where 0 is no effect and 10 is complete control): 0 | Corn plant response rating [4, 25]: 0 | Corn plant response rating [4, 26]: 0 | Plant response rating, Corn [4, 25]: 0 | Plant response rating, Corn [4, 27]: 0 | Plant response rating, Corn [4, 28]: 0 | Corn plant response rating [4, 29]: 0 | Corn plant response rating [4, 30]: 0 | Crabgrass plant response rating [5, 17]: 0 | Crabgrass plant response rating [5, 18]: 2 | Plant response rating, Crabgrass [5, 19]: 2 | Plant response rating, Crabgrass [5, 20]: 2 | Plant response rating, Crabgrass [5, 21]: 3 | Crabgrass plant response rating [5, 22]: 8 | Crabgrass plant response rating [5, 23]: 0 | Crabgrass plant response rating [5, 24]: 5 | Giant foxtail plant response rating [6, 17]: 3 | Giant foxtail plant response rating [6, 18]: 3 | Plant response rating, Giant foxtail [6, 19]: 2 | Plant response rating, Giant foxtail [6, 20]: 3 | Plant response rating, Giant foxtail [6, 21]: 3 | Giant foxtail plant response rating [6, 22]: 7 | Giant foxtail plant response rating [6, 23]: 3 | Giant foxtail plant response rating [6, 24]: 5 | Morningglory plant response rating [7, 25]: 0 | Morningglory plant response rating [7, 26]: 2 | Plant response rating, Morningglory [7, 25]: 0 | Plant response rating, Morningglory [7, 27]: 0 | Plant response rating, Morningglory [7, 28]: 0 | Morningglory plant response rating [7, 29]: 0 | Morningglory plant response rating [7, 30]: 2 | Redroot pigweed plant response rating [8, 17]: 0 | Redroot pigweed plant response rating [8, 18]: 2 | Plant response rating, Redroot pigweed [8, 19]: 0 | Plant response rating, Redroot pigweed [8, 20]: 0 | Plant response rating, Redroot pigweed [8, 21]: 0 | Redroot pigweed plant response rating [8, 22]: 0 | Redroot pigweed plant response rating [8, 23]: 0 | Redroot pigweed plant response rating [8, 24]: 4 | Soybean plant response rating [9, 17]: 0 | Soybean plant response rating [9, 18]: 0 | Plant response rating, Soybean [9, 19]: 0 | Plant response rating, Soybean [9, 20]: 0 | Plant response rating, Soybean [9, 21]: 0 | Soybean plant response rating [9, 22]: 0 | Soybean plant response rating [9, 23]: 0 | Soybean plant response rating [9, 24]: 0 | Velvetleaf plant response rating [10, 17]: 0 | Velvetleaf plant response rating [10, 18]: 0 | Plant response rating, Velvetleaf [10, 19]: 0 | Plant response rating, Velvetleaf [10, 20]: 0 | Plant response rating, Velvetleaf [10, 21]: 0 | Velvetleaf plant response rating [10, 22]: 0 | Velvetleaf plant response rating [10, 23]: 0 | Velvetleaf plant response rating [10, 24]: 0 | Wheat plant response rating [11, 17]: 0 | Wheat plant response rating [11, 18]: 0 | Plant response rating, Wheat [11, 19]: 0 | Plant response rating, Wheat [11, 20]: 0 | Plant response rating, Wheat [11, 21]: 0 | Wheat plant response rating [11, 22]: 0 | Wheat plant response rating [11, 23]: 0 | Wheat plant response rating [11, 24]: 0 | Wild oats plant response rating [12, 17]: 0 | Wild oats plant response rating [12, 18]: 0 | Plant response rating, Wild oats [12, 20]: 0 | Plant response rating, Wild oats [12, 21]: 0 | Wild oats plant response rating [12, 22]: 0 | Wild oats plant response rating [12, 23]: 0 | Wild oats plant response rating [12, 24]: 0 | Nutsedge plant response rating [13, 17]: 0 | Nutsedge plant response rating [13, 18]: 0 | Plant response rating, Nutsedge [13, 19]: 0 | Plant response rating, Nutsedge [13, 20]: 0 | Plant response rating, Nutsedge [13, 21]: 0 | Nutsedge plant response rating [13, 22]: 0 | Nutsedge plant response rating [13, 23]: 0 | Nutsedge plant response rating [13, 24]: 0 | Rice plant response rating [14, 17]: 0 | Rice plant response rating [14, 31]: 0 | Rice plant response rating [14, 32]: 0 | Rice plant response rating [14, 33]: 0 | S. Flatsedge plant response rating [15, 17]: 0 | S. Flatsedge plant response rating [15, 31]: 0 | S. Flatsedge plant response rating [15, 32]: 0 | S. Flatsedge plant response rating [15, 33]: 0 | Ducksalad plant response rating [16, 17]: 0 | Ducksalad plant response rating [16, 31]: 0 | Ducksalad plant response rating [16, 32]: 0 | Ducksalad plant response rating [16, 33]: 0
